# From patent US11000708B2 (priority 2015, dated 2021)
# Where “and” joins values, the source holds several entries; their conditions need not be identical. Identical values can stand only once. Like-named read-outs stand apart in the source and are kept apart here.
# Columns and labels:
# [1] = tested on: 518 clinically-separated Mycobacterium tuberculosis strains; conditions: cited from earlier work
# [2] = tested on: clinically-separated Mycobacterium tuberculosis strains; assay type: cell-based
# [3] = 518 clinically-separated strains
# [4] = among 321 strains resistant to one or more first-line drugs
compound,measurement,setting,value
"NNC(=O)c1ccncc1 [Isoniazid, isoniazid]",resistance rate of Mycobacterium tuberculosis,[1]; [3],53.67%
same,growth of bacterial colonies on drug-containing culture medium,"[2]; isoniazid 0.2 μg/ml, Table 4, per clinical strain",4+ (positive (4+) if the bacterial colonies closely grow on the slant face of the culture medium and account for ¾ or more of the area of the slant face) and 3+ (positive (3+) if the bacterial colonies closely grow on the slant face of the culture medium or are partially fused and account for ½ or more of the slant face and ¾ or less of the slant face)
"CO[C@H]1/C=C/O[C@@]2(C)Oc3c(C)c(O)c4c(O)c(c(/C=N/N5CCN(C)CC5)c(O)c4c3C2=O)NC(=O)/C(C)=C\C=C\[C@H](C)[C@H](O)[C@@H](C)[C@@H](O)[C@@H](C)[C@H](OC(C)=O)[C@@H]1C [Rifampicin, rifampicin]",growth of bacterial colonies on drug-containing culture medium,"[2]; rifampicin 50 μg/ml, Table 5, per clinical strain",4+ (positive (4+) if the bacterial colonies closely grow on the slant face of the culture medium and account for ¾ or more of the area of the slant face) and 3+ (positive (3+) if the bacterial colonies closely grow on the slant face of the culture medium or are partially fused and account for ½ or more of the slant face and ¾ or less of the slant face) and 2+ (positive (2+) if the bacterial colonies dispersedly grow on the slant face of the culture medium and account for ¼ or more of the slant face and ½ or less of the slant face)
same,growth of bacterial colonies on drug-containing culture medium,"[2]; rifampicin 50 μg/ml, Table 6, isoniazid- and rifampicin-resistant clinical strains",4+ (positive (4+) if the bacterial colonies closely grow on the slant face of the culture medium and account for ¾ or more of the area of the slant face) and 3+ (positive (3+) if the bacterial colonies closely grow on the slant face of the culture medium or are partially fused and account for ½ or more of the slant face and ¾ or less of the slant face) and 2+ (positive (2+) if the bacterial colonies dispersedly grow on the slant face of the culture medium and account for ¼ or more of the slant face and ½ or less of the slant face)
NCC[C@H](O)C(=O)N[C@@H]1C[C@H](N)[C@@H](O[C@H]2O[C@H](CN)[C@@H](O)[C@H](O)[C@H]2O)[C@H](O)[C@H]1O[C@H]1O[C@H](CO)[C@@H](O)[C@H](N)[C@H]1O [amikacin],resistance rate of Mycobacterium tuberculosis,[1]; [3],15.83%
same,resistance rate of Mycobacterium tuberculosis,[1]; [4],25.55%
[H]/N=C(/N)N[C@H]1[C@H](O)[C@@H](O)[C@H](O[C@@H]2O[C@@H](C)[C@](O)(C=O)[C@H]2O[C@@H]2O[C@@H](CO)[C@H](O)[C@@H](O)[C@@H]2NC)[C@@H](N/C(N)=N\[H])[C@@H]1O [streptomycin],resistance rate of Mycobacterium tuberculosis,[1]; [3],45.95%
capreomycin,resistance rate of Mycobacterium tuberculosis,[1]; [3],21.81%
same,resistance rate of Mycobacterium tuberculosis,[1]; [4],33.02%
carrimycin,number of strains sensitive to 1 μg/ml of carrimycin,[2]; 1 μg/ml,54 strains
same,share of total effective bacteria sensitive to 1 μg/ml of carrimycin,[2]; 1 μg/ml,31.39%
same,number of strains with activity superior to that of isoniazid and that of rifampicin,[2]; 20 μg/ml carrimycin vs 1 μg/ml isoniazid and 250 μg/ml rifampicin,23 strains
same,number of strains with activity superior to that of isoniazid,"[2]; 20 μg/ml carrimycin, isoniazid-resistant clinical strains",37 strains
same,number of strains with activity superior to that of rifampicin,"[2]; 20 μg/ml carrimycin, rifampicin-resistant clinical strains",39 strains
same,total effective rate,[2]; 172 of 240 clinically-separated strains,71.66%
same,share of effective strains with activity superior to isoniazid,[2]; of 172 effective strains,21.5%
same,share of effective strains with activity superior to isoniazid and rifampicin,[2]; of 172 effective strains,13.4%
same,share of effective strains with activity superior to rifampicin,[2]; of 172 effective strains,22.7%
same,share of effective strains with sensitivity equivalent to H37Rv,[2]; of 172 effective strains,53.48%
same,number of strains with sensitivity equivalent to that of quality control strains H37Rv,[2]; of 172 sensitive strains,92 strains
same,number of strains with sensitivity obviously higher than that of quality control strains H37Rv,[2]; of 172 sensitive strains,80 strains
same,number of strains sensitive to carrimycin,"[2]; of 240 clinically-separated strains, 1 μg/ml or 20 μg/ml",172 strains
